Reference: ChEMBL document CHEMBL5036375, “Malaria Box-Inspired Discovery of N-Aminoalkyl-β-carboline-3-carboxamides, a Novel Orally Active Class of Antimalarials” (ACS Med Chem Lett, 2022)
Active and inactive are the calls of the source. The rule behind the calls is not given here.

Columns and labels:
Plasmodium falciparum [1] = assay: Antimalarial activity against synchronized Plasmodium falciparum Dd2 (MRA-150) infected in human O-postive erythrocytes assessed as reduction in parasite growth after 72 hrs by SYBR green I staining based fluorescence assay; assay type: functional, organism-based
Plasmodium falciparum [2] = assay: Antimalarial activity against synchronized Plasmodium falciparum Dd2 (MRA-150) infected in human O-postive erythrocytes in presence of IPP assessed as reduction in parasite growth at 5 uM measured after 72 hrs by SYBR green I staining based fluorescence assay relative to control; assay type: functional; design: scale not given: the % may be the effect or the level left
Plasmodium falciparum [3] = assay: Antimalarial activity against synchronized Plasmodium falciparum Dd2 (MRA-150) infected in human O-postive erythrocytes in presence of IPP assessed as reduction in parasite growth at 2.5 uM measured after 72 hrs by SYBR green I staining based fluorescence assay relative to control; assay type: functional; design: scale not given: the % may be the effect or the level left
Plasmodium berghei [4] = assay: Antimalarial activity against Plasmodium berghei ANKA expressing luciferase, PbGFP-Luccon infected in mouse assessed as reduction in parasitemia at 40 mg/kg, po measured after 4 days by luminescence assay; assay type: functional, organism-based; conditions: time 4.0 day
[5] = Toxicity in mouse infected with Plasmodium berghei ANKA assessed as weight loss at 40 mg/kg, po measured after 4 days; assay type: organism-based; conditions: in vivo, 96 h, time 4 day
HEK293 = assay: Cytotoxicity against human HEK293 cells by resazurin based cell viability assay; assay type: functional
Plasmodium falciparum [6] = assay: Antimalarial activity against Plasmodium falciparum W2 infected in human O-postive erythrocytes measured after 72 hrs by SYBR green I staining based fluorescence assay; assay type: functional, organism-based; conditions: W2, 72 h
[7] = Lipophilicity, logD of the compound between 1-octanol and PBS pH 7.4 at 10 mM by LC-MS analysis; assay type: physicochemical; conditions: 1-octanol/PBS
[8] = Half life in CD-1 mouse liver microsomes after 60 mins by LC-MS analysis; assay type: ADME, Microsome
[9] = Toxicity in mouse infected with Plasmodium berghei ANKA assessed as behavioural changes at 40 mg/kg, po measured after 4 days; assay type: organism-based; conditions: in vivo, 96 h, time 4 day
[10] = Half life in rat plasma 40 mg/kg, po; assay type: ADME, organism-based
Plasmodium falciparum [11] = assay: Antimalarial activity against KAE609 resistant Plasmodium falciparum Dd2 infected in human O-postive erythrocytes measured after 72 hrs by SYBR green I staining based fluorescence assay; assay type: functional, organism-based; conditions: Dd2, 72 h
[12] = Oral bioavailability in rat at 40 mg/kg; assay type: ADME, organism-based; conditions: in vivo
[13] = Toxicity in mouse infected with Plasmodium berghei ANKA assessed as lethargy at 40 mg/kg, po measured after 4 days; assay type: organism-based; conditions: in vivo, 96 h, time 4 day
Plasmodium falciparum [14] = assay: Antimalarial activity against Plasmodium falciparum 3D7A incubated for 48 hrs by [3H]-hypoxanthine incorporation assay; assay type: functional, organism-based; conditions: 3D7
[15] = Volume of distribution in rat at 10 mg/kg , iv; assay type: ADME, organism-based; conditions: in vivo
[16] = Toxicity in mouse infected with Plasmodium berghei ANKA assessed as ruffled fur at 40 mg/kg, po measured after 4 days; assay type: organism-based; conditions: in vivo, 96 h, time 4 day
Plasmodium falciparum [17] = assay: Antimalarial activity against Plasmodium falciparum 3D7 (MRA-102) incubated for 72 hrs by Lactate dehydrogenase activity; assay type: functional, organism-based; conditions: 3D7 MRA-102, 72 h
[18] = Cmax in rat at 40 mg/kg, po; assay type: ADME, organism-based; design: route oral, dose 40 mg/kg; conditions: in vivo
Plasmodium falciparum [19] = assay: Antimalarial activity against Plasmodium falciparum 4G infected in human O-postive erythrocytes measured after 72 hrs by SYBR green I staining based fluorescence assay; assay type: functional, organism-based
Plasmodium falciparum [20] = assay: Antimalarial activity against Plasmodium falciparum 3D7 (MRA-102) infected in human O-postive erythrocytes measured after 72 hrs by SYBR green I staining based fluorescence assay; assay type: functional, organism-based; conditions: 3D7 MRA-102, 72 h
[21] = Thermodynamic solubility of PBS at pH 7.4 by LC-MS analysis; assay type: physicochemical; conditions: read-out: Therm_solubility
Escherichia coli = assay: Antibacterial activity against Escherichia coli (BL21) assessed as bacterial growth after 18 hrs by g a cell density meter; assay type: functional
Hepatocyte = assay: Cytotoxicity against human hepatocytes measured after 96 hrs by DAPI staining based fluroscence assay; assay type: functional
[22] = Stability in CD-1 mouse plasma at 1 hour by LC-MS analysis a; assay type: ADME, cell-free; conditions: read-out: Stability
[23] = Toxicity in mouse infected with Plasmodium berghei ANKA assessed as gait at 40 mg/kg, po measured after 4 days; assay type: organism-based; conditions: in vivo, 96 h, time 4 day
[24] = biological target: Voltage-gated inwardly rectifying potassium channel KCNH2 (Homo sapiens, UniProt Q12809); assay: Inhibition of human ERG expressed in HEK-293 cells by patch clamp method; assay type: cell-based, HEK293
Plasmodium berghei [25] = assay: Antimalarial activity against Plasmodium berghei ANKA expressing luciferase, PbGFP-Luccon infected in mouse assessed as reduction in parasitemia at 20 mg/kg, po measured after 4 days by luminescence assay; assay type: functional, organism-based; conditions: time 4.0 day

Voltage-gated inwardly rectifying potassium channel KCNH2, sequence (Q12809 whole entry): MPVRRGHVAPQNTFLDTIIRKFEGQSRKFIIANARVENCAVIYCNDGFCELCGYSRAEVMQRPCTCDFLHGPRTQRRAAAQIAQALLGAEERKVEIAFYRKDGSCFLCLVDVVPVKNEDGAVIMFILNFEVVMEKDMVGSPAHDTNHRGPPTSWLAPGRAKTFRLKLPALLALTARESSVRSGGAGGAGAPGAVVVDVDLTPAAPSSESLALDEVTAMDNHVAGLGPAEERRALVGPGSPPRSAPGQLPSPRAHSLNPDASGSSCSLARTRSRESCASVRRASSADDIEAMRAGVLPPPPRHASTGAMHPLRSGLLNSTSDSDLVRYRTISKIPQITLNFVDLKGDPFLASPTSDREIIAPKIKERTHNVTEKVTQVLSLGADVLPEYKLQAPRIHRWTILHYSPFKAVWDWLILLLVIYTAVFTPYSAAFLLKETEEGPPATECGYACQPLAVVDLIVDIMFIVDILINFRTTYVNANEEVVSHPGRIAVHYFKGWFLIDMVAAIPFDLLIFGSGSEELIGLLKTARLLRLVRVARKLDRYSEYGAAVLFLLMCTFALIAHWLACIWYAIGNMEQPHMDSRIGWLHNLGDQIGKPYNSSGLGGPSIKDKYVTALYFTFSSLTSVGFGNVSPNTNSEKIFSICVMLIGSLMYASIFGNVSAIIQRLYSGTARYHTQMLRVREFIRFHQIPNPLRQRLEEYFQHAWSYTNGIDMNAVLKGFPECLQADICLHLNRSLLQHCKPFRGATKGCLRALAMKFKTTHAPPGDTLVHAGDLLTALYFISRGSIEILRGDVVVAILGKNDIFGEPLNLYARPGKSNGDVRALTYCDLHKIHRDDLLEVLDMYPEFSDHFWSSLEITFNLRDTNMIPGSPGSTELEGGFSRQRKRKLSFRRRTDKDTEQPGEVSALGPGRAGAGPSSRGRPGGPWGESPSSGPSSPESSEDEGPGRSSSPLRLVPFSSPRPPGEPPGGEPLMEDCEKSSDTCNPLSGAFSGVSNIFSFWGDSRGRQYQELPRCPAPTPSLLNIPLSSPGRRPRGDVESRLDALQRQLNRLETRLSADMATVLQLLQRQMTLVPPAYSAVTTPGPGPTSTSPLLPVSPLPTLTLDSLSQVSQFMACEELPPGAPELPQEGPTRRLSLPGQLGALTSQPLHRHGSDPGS

With `Cc1cccc2c1[nH]c1c(-c3ccc(Cl)c(Cl)c3)nc(C(=O)NCCO)cc12` the EC50 (Plasmodium falciparum [1]) was 3270 nM.

Work on `CNCCNC(=O)[C@H]1Cc2c([nH]c3c(C)cccc23)[C@@H](c2ccc(Cl)cc2Cl)N1` yielded an EC50 (Plasmodium falciparum [1]) of 1430 nM.

Molecule `COC(=O)c1cc2c([nH]c3c(C)cccc32)c(-c2ccc(Cl)c(Cl)c2)n1` has an EC50 (Plasmodium falciparum [1]) greater than 10000 nM.

Work on `CNCCNC(=O)c1cc2c([nH]c3c(C)cccc32)c(-c2ccccc2)n1` yielded an EC50 (Plasmodium falciparum [1]) of 4000 nM.

With `CNCCNC(=O)[C@@H]1Cc2c([nH]c3c(C)cccc23)[C@@H](c2ccc(Cl)cc2Cl)N1` the EC50 (Plasmodium falciparum [1]) was 1950 nM and the Activity (Plasmodium falciparum [2]) was 50%.

Work on `O=C(O)[C@@H]1Cc2c([nH]c3ccccc23)[C@@H](c2ccc(Cl)cc2Cl)N1` yielded an Activity (Plasmodium falciparum [3]) of 100%.

In the case of `Cc1cccc2c1[nH]c1c(-c3ccc(Cl)c(Cl)c3)nc(C(=O)O)cc12`, the EC50 (Plasmodium falciparum [1]) is reported as greater than 10000 nM.

In the case of `Cc1cccc2c1[nH]c1c(-c3ccc(Cl)c(Cl)c3)nc(C(=O)NCCN)cc12`, the EC50 (Plasmodium falciparum [1]) is reported as 263 nM.

`Cc1cccc2c1[nH]c1c(-c3ccc(Cl)c(Cl)c3)nc(C(=O)NCCN(C)C)cc12` showed an EC50 (Plasmodium falciparum [1]) of 264 nM.

`CNCCNC(=O)c1cc2c([nH]c3ccccc32)c(-c2ccccc2)n1` gave an EC50 (Plasmodium falciparum [1]) of 2500 nM.

With `CCN(CC)CCCC(C)Nc1ccnc2cc(Cl)ccc12` (configuration not stated) the Activity (Plasmodium berghei [4]) was “Active”.

In the case of `CNCCNC(=O)c1cc2c([nH]c3c(C)cccc32)c(-c2ccc(Cl)cc2)n1`, the EC50 (Plasmodium falciparum [1]) is reported as 274 nM.

`CNCCNC(=O)c1cc2c([nH]c3c(C)cccc32)c(-c2ccc(Cl)cc2Cl)n1` showed an EC50 (Plasmodium falciparum [1]) of 583 nM.

In the case of `CNCCNC(=O)c1cc2c([nH]c3c(C)cccc32)c(-c2ccc(Cl)c(Cl)c2)n1.Cl`, the Activity [5] is reported as “Non-Toxic”, the CC50 (HEK293) is reported as 32000 nM and the EC50 (Plasmodium falciparum [6]) is reported as 100 nM. It also gave a logD at 10000 µM [7] of 3.3, a half-life [8] of 1.83 h and an EC50 (Plasmodium falciparum [1]) of 108 nM. For the same molecule, the Activity [9] was “Non-Toxic”, the half-life [10] was 8 h and the EC50 (Plasmodium falciparum [11]) was 101 nM. For the same molecule, the bioavailability [12] was 40%, the Activity [13] was “Non-Toxic” and the IC50 (Plasmodium falciparum [14]) was 70 nM. For the same molecule, the Vd [15] was 21.8 L/kg, the Activity [16] was “Non-Toxic” and the IC50 (Plasmodium falciparum [17]) was 117 nM. The Cmax [18] was 800 nM, the EC50 (Plasmodium falciparum [19]) was 110 nM and the EC50 (Plasmodium falciparum [20]) was 53 nM. For the same molecule, the solubility thermodynamic [21] was 9.5 µM, the MIC (Escherichia coli) was greater than 250 µM and the Activity (Plasmodium berghei [4]) was “Active”. For the same molecule, the CC50 (Hepatocyte) was 8500 nM, the remaining at 1 h [22] was 100% and the Activity [23] was “Non-Toxic”. For the same molecule, the IC50 [24] was 510 nM, the Activity (Plasmodium berghei [25]) was “inactive” and the Activity (Plasmodium falciparum [3]) was 0%.

For `CNCCNC(=O)[C@H]1Cc2c([nH]c3c(C)cccc23)[C@H](c2ccc(Cl)cc2Cl)N1`, the EC50 (Plasmodium falciparum [1]) was 3690 nM.

Work on `CNC(=O)c1cc2c([nH]c3c(C)cccc32)c(-c2ccc(Cl)c(Cl)c2)n1` yielded an EC50 (Plasmodium falciparum [1]) greater than 10000 nM.

Work on `Cc1cccc2c1[nH]c1c(-c3ccc(Cl)c(Cl)c3)nc(C(=O)NCCCN(C)C)cc12` yielded an EC50 (Plasmodium falciparum [1]) of 240 nM.

Molecule `CNCCCNC(=O)c1cc2c([nH]c3c(C)cccc32)c(-c2ccc(Cl)c(Cl)c2)n1` has an EC50 (Plasmodium falciparum [1]) of 217 nM.

`Cc1cccc2c1[nH]c1c(-c3ccc(Cl)c(Cl)c3)nc(C(=O)NCCCN)cc12` gave an EC50 (Plasmodium falciparum [1]) of 726 nM.

Molecule `CNCCNC(=O)[C@@H]1Cc2c([nH]c3c(C)cccc23)[C@H](c2ccc(Cl)cc2Cl)N1` has an EC50 (Plasmodium falciparum [1]) of 1300 nM.

Work on `CNCCNC(=O)c1cc2c([nH]c3ccccc32)c(-c2cccc(Cl)c2)n1` yielded an EC50 (Plasmodium falciparum [1]) of 641 nM.

Molecule `CNCCNC(=O)c1cc2c([nH]c3ccccc32)c(-c2ccc(Cl)cc2)n1` has an EC50 (Plasmodium falciparum [1]) of 496 nM.

With `CCCCNC(=O)c1cc2c([nH]c3c(C)cccc32)c(-c2ccc(Cl)c(Cl)c2)n1` the EC50 (Plasmodium falciparum [1]) was 1020 nM.

For `CNCCNC(=O)c1cc2c([nH]c3ccccc32)c(-c2ccc(Cl)c(Cl)c2)n1`, the EC50 (Plasmodium falciparum [1]) was 277 nM.

For `CNCCNC(=O)c1cc2c([nH]c3c(C)cccc32)c(-c2cccc(Cl)c2)n1`, the EC50 (Plasmodium falciparum [1]) was 342 nM.
